Measurements as given in US10947575B2, “Rapid antimicrobial susceptibility test, based on an analysis of changes in morphology and growth pattern of a microbial cell under different concentrations of various antimicrobial agents, and automated cell image analysis system therefor” (priority 2014, dated 2021).
Where two headings read alike, the source gives them in different places.

Assays:
[1] = test system: E. coli ATCC 25922; experiment: AST by analysis of changes in morphology and growth pattern of a microbial cell (MAC 2.0 chip imaging); assay type: cell-based; conditions: Normal / Filament / Swelling
Text: (§1) Four reference strains (E. coli ATCC 25922, S. aureus ATCC 29213, P. aeruginosa ATCC 27853, and E. faecalis ATCC 29212) were used as objective strains, in accordance with Clinical and Laboratory Standards Institute (CLSI) guidelines. […] The bacterial cell in MAC 2.0TM (QuantaMatrix) was monitored through a S Plan Fluor ELWD 60X (NA 1.49) lens of an inverted optical microscope (Eclipse Ti-Nikon, IX71-Olympus) provided in a heating system, and then, an electron multiplying CCD camera (QuantEM:512SC Photometrics for Eclipse Ti) was used to obtain images of a region where is adjacent to an interface between the agarose well of MAC 2.0TM and the antimicrobial agents well, over time.

[2] = test system: P. aeruginosa ATCC 27853; experiment: as above; assay type: cell-based; conditions: Normal / Filament / Swelling
Text: as §1

[3] = test system: E. coli ATCC 25922; experiment: MIC by the proposed method (SCMA), from morphology and growth pattern changes; assay type: cell-based; conditions: time to result 3 hr
Text: (§2) The bacterial cell in MAC 2.0™ (QuantaMatrix) was monitored through a S Plan Fluor ELWD 60X (NA 1.49) lens of an inverted optical microscope (Eclipse Ti—Nikon, IX71—Olympus) provided in a heating system, and then, an electron multiplying CCD camera (QuantEM:512SC Photometrics for Eclipse Ti) was used to obtain images of a region where is adjacent to an interface between the agarose well of MAC 2.0™ and the antimicrobial agents well, over time. […] In the AST method according to the inventive concept, minimal inhibitory concentration (MIC) was measured using the changes in morphology and growth pattern of the four reference strains (i.e., E. coli ATCC 25922, S. aureus ATCC 29213, P. aeruginosa ATCC 27853, and E. faecalis ATCC 29212) and was compared with MIC quality control (QC) per CLSI guidelines.

[4] = test system: P. aeruginosa ATCC 27853; experiment: as above; assay type: cell-based; conditions: time to result 3 hr
Text: as §2

[5] = test system: E. coli ATCC 25922; conditions: time to result 16~20 hr; cited from earlier work
[6] = test system: P. aeruginosa ATCC 27853; conditions: time to result 16~20 hr; cited from earlier work
[7] = test system: E. faecalis ATCC 29212; experiment: AST by analysis of changes in morphology and growth pattern of a microbial cell (MAC 2.0 chip imaging); assay type: cell-based; conditions: RRG = relatively rapid growth, RSG = relatively slow growth
Text: as §1

[8] = test system: S. aureus ATCC 29213; experiment: as above; assay type: cell-based; conditions: RRG = relatively rapid growth, RSG = relatively slow growth
Text: as §1

[9] = test system: E. faecalis ATCC 29212; experiment: MIC by the proposed method (SCMA), from morphology and growth pattern changes; assay type: cell-based
Text: as §2

[10] = test system: S. aureus ATCC 29213; experiment: as above; assay type: cell-based
Text: as §2

[11] = test system: S. aureus ATCC 29213; conditions: time to result 16~20 hr; cited from earlier work
[12] = test system: E. faecalis ATCC 29212; conditions: time to result 16~20 hr, cited from earlier work
[13] = time to result 4 hr, unit assumed

| Molecule | Criteria (change in morphology and growth pattern) [1] | Criteria (change in morphology and growth pattern) [2] | CLSI QC range (MIC) [5] | CLSI QC range (MIC) [6] | Criteria (change in morphology and growth pattern) [7] | Criteria (change in morphology and growth pattern) [8] | SCMA Results (MIC) ([9]; time to result 4 hr) | CLSI QC range (MIC) [11] | CLSI QC range (MIC) [12] | SCMA Results (MIC) ([3]; unit assumed) [mg/L] | also measured |
| --- | --- | --- | --- | --- | --- | --- | --- | --- | --- | --- | --- |
| NCC[C@H](O)C(=O)N[C@@H]1C[C@H](N)[C@@H](O[C@H]2O[C@H](CN)[C@@H](O)[C@H](O)[C@H]2O)[C@H](O)[C@H]1O[C@H]1O[C@H](CO)[C@@H](O)[C@H](N)[C@H]1O [Amikacin] | Normal growth | Normal | 0.5~4 | 1~4 | – | – | – | – | – | – | SCMA Results (MIC) [3]: 0.5~1; SCMA Results (MIC) [4]: 1~2 |
| CC1(C)S[C@@H]2[C@H](NC(=O)[C@H](N)c3ccccc3)C(=O)N2[C@H]1C(=O)O [Ampicillin] | Filament | – | 2~8 | – | Normal | Normal | 0.5~1 | 0.5~2 | 0.5~2 | – | SCMA Results (MIC) [3]: 2~4; SCMA Results (MIC) [10, 13]: 1 mg/L |
| C[C@H]1[C@H](NC(=O)/C(=N\OC(C)(C)C(=O)O)c2csc(N)n2)C(=O)N1S(=O)(=O)O [Aztreonam] | Filament | Filament | 0.06~0.25 | 2~8 | – | – | – | – | – | 0.12 | SCMA Results (MIC) [4]: 2~4 |
| Cc1nnc(SCC2=C(C(=O)O)N3C(=O)[C@@H](NC(=O)Cn4cnnn4)[C@H]3SC2)s1 [Cefazolin] | Filament | – | 1~4 | – | – | – | – | – | – | 2 | – |
| CO/N=C(\C(=O)N[C@@H]1C(=O)N2C(C(=O)[O-])=C(C[N+]3(C)CCCC3)CS[C@H]12)c1csc(N)n1 [Cefepime] | Filament | Filament | 0.015~0.12 | 0.5~4 | – | – | – | – | – | – | SCMA Results (MIC) [3]: 0.03~0.06; SCMA Results (MIC) [4]: 0.5~2 |
| CO/N=C(\C(=O)N[C@@H]1C(=O)N2C(C(=O)O)=C(COC(C)=O)CS[C@H]12)c1csc(N)n1 [Cefotaxime] | Filament | Filament | – | 8~32 | – | – | – | – | – | 0.06 | SCMA Results (MIC) ([4]; unit assumed): 16 mg/L |
| CO[C@@]1(NC(=O)Cc2cccs2)C(=O)N2C(C(=O)O)=C(COC(N)=O)CS[C@@H]21 [Cefoxitin] | Filament | – | 2~8 | – | – | – | – | – | – | 2 | – |
| CC(C)(O/N=C(\C(=O)N[C@@H]1C(=O)N2C(C(=O)[O-])=C(C[n+]3ccccc3)CS[C@H]12)c1csc(N)n1)C(=O)O [Ceftazidime] | Filament | Filament formation | 0.06~0.5 | 1~4 | – | – | – | – | – | 0.5 | SCMA Results (MIC) [4]: 2~4 |
| CC[C@H]1OC(=O)[C@H](C)[C@@H](O[C@H]2C[C@@](C)(OC)[C@@H](O)[C@H](C)O2)[C@H](C)[C@@H](O[C@@H]2O[C@H](C)C[C@H](N(C)C)[C@H]2O)[C@](C)(O)C[C@@H](C)C(=O)[C@H](C)[C@@H](O)[C@]1(C)O [Erythromycin] | – | – | – | – | RSG | RSG | – | 0.25~1 | 1~4 | – | SCMA Results (MIC) ([9]; 6 hr): 1 (6 hr); SCMA Results (MIC) [10, 13]: 0.25 mg/L |
| C[C@@H](O)[C@H]1C(=O)N2C(C(=O)O)=C(SCCN=CN)C[C@H]12 [Imipenem] | – | – | – | – | – | – | – | – | – | 0.12 | SCMA Results (MIC) ([4]; unit assumed): 1 mg/L; SCMA Results (MIC) [10, 13]: 0.03 mg/L |
| C[C@H]1COc2c(N3CCN(C)CC3)c(F)cc3c(=O)c(C(=O)O)cn1c23 [Levofloxacin] | – | – | – | – | – | – | 1 mg/L | – | – | – | SCMA Results (MIC) ([10]; time to result 4 hr): 0.12~0.25 |
| CC(=O)NC[C@H]1CN(c2ccc(N3CCOCC3)c(F)c2)C(=O)O1 [Linezolid] | – | – | – | – | RSG | RSG | 1~2 | 1~4 | 1~4 | – | Criteria (change in morphology and growth pattern) ([7]; listed as linezolid): Relatively slow growth (RSG); SCMA Results (MIC) ([10]; time to result 4 hr): 1~4 |
| C[C@@H](O)[C@H]1C(=O)N2C(C(=O)O)=C(S[C@@H]3CN[C@H](C(=O)N(C)C)C3)[C@H](C)[C@H]12 [Meropenem] | – | Swelling | – | 0.25~1 | – | – | – | – | – | – | SCMA Results (MIC) ([4]; unit assumed): 1 mg/L |
| CCn1cc(C(=O)O)c(=O)c2cc(F)c(N3CCNCC3)cc21 [Norfloxacin] | Normal | – | 0.03~0.12 | – | RRG | – | 2~4 | – | 2~8 | – | SCMA Results (MIC) [3]: 0.03~0.06 |
| Cc1onc(-c2ccccc2)c1C(=O)N[C@@H]1C(=O)N2[C@@H]1SC(C)(C)[C@@H]2C(=O)O [Oxacillin] | – | – | – | – | – | RRG | – | 0.12~0.5 | – | – | SCMA Results (MIC) [10, 13]: 0.5 mg/L |
| CCN1CCN(C(=O)N[C@@H](C(=O)N[C@@H]2C(=O)N3[C@@H]2SC(C)(C)[C@@H]3C(=O)O)c2ccccc2)C(=O)C1=O [Piperacillin] | Filament formation | Filament | 1~4 | 1~8 | – | – | – | – | – | 2 | SCMA Results (MIC) [4]: 4~8 |
| CO[C@H]1/C=C/O[C@@]2(C)Oc3c(C)c(O)c4c(O)c(c(/C=N/N5CCN(C)CC5)c(O)c4c3C2=O)NC(=O)/C(C)=C\C=C\[C@H](C)[C@H](O)[C@@H](C)[C@@H](O)[C@@H](C)[C@H](OC(C)=O)[C@@H]1C [Rifampin] | – | – | – | – | RSG | RSG | 0.5 mg/L | 0.004~0.015 | 0.5~4 | – | SCMA Results (MIC) ([10]; 6 hr): 0.004~0.08 (6 hr) |
| [H]/N=C(/N)N[C@H]1[C@H](O)[C@@H](O)[C@H](O[C@@H]2O[C@@H](C)[C@](O)(C=O)[C@H]2O[C@@H]2O[C@@H](CO)[C@H](O)[C@@H](O)[C@@H]2NC)[C@@H](N/C(N)=N\[H])[C@@H]1O [Streptomycin High Level, Streptomycin] | – | – | – | – | Normal | – | ≤ 500 mg/L | – | – | – | CLSI QC range (MIC) ([12]; unit assumed): ≤ 500 mg/L |
| CC1(C)S[C@@H]2[C@H](NC(=O)[C@H](C(=O)O)c3ccsc3)C(=O)N2[C@H]1C(=O)O [Ticarcilin] | – | Filament | – | 8~32 | – | – | – | – | – | – | SCMA Results (MIC) ([4]; unit assumed): 16 mg/L |
| NC[C@H]1O[C@H](O[C@H]2[C@H](O)[C@@H](O[C@H]3O[C@H](CO)[C@@H](O)[C@H](N)[C@H]3O)[C@H](N)C[C@@H]2N)[C@H](N)C[C@@H]1O [Tobramycin] | – | Normal | – | 0.25~1 | – | – | – | – | – | – | – |
| CN[C@H](CC(C)C)C(=O)N[C@H]1C(=O)N[C@@H](CC(N)=O)C(=O)N[C@H]2C(=O)N[C@H]3C(=O)N[C@H](C(=O)N[C@H](C(=O)O)c4cc(O)cc(O)c4-c4cc3ccc4O)[C@H](O)c3ccc(c(Cl)c3)Oc3cc2cc(c3O[C@@H]2O[C@H](CO)[C@@H](O)[C@H](O)[C@H]2O[C@H]2C[C@](C)(N)[C@H](O)[C@H](C)O2)Oc2ccc(cc2Cl)[C@H]1O [Vancomycin] | – | – | – | – | Normal growth | normal | 2~4 | 0.5~2 | 1~4 | – | SCMA Results (MIC) [10, 13]: 1 mg/L |
| Penicillin | – | – | – | – | Normal | Normal | 1~2 | 0.25~2 | 1~4 | – | SCMA Results (MIC) [10, 13]: 0.5 mg/L |
| Teicoplanin | – | – | – | – | Normal | – | 0.5 mg/L | – | 0.25~1 | – | – |
